In patent publication US20230416199A1, “INHIBITORS OF AMINO ACID TRANSPORT” (ICAHN SCHOOL OF MEDICINE AT MOUNT SINAI, priority 2020, published 2023):
Like-named read-outs stand apart in the source and are kept apart here.

What was measured:
Assay type in all cases: cell-based
rASCT2 = target: T1, rASCT2 (Rattus norvegicus, UniProt D3ZJ25); test: Electrophysiology (whole-cell current recording) of transfected HEK293 cells, rASCT2
T1 construct: expressed in transfected cells; host or cells: HEK293 (ATCC CRL-11268), transient transfection
T1 sequence (D3ZJ25 1-555): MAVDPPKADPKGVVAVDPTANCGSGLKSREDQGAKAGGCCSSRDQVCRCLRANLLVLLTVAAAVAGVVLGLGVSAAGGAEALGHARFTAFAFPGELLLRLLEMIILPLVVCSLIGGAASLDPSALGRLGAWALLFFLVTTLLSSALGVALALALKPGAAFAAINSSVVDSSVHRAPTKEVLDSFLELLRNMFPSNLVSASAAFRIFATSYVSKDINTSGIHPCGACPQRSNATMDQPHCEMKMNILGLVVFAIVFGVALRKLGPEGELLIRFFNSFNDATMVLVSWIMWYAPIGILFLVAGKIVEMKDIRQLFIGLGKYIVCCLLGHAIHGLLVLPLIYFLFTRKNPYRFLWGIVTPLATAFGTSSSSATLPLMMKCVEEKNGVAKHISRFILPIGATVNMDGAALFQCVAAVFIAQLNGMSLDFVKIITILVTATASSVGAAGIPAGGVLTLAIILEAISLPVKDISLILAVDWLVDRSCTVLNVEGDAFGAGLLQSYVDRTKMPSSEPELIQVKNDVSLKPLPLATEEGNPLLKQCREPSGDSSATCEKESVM
Procedure: (§1) Human embryonic kidney 293 (HEK293, ATCC CRL-11268) cells were cultured in DMEM media supplemented with 10% (v v) fetal bovine serum (FBS), 2 mM glutamine, 1% penicillin streptomycin solution, 1 mM sodium pyruvate and non-essential amino acids. Cells were maintained at 37° C. in a fully humidified atmosphere containing 5% CO2. rASCT2, hASCT2, hASCT1, EAAT1, EAAT2, EAAC1, EAAT5 and YFP complementary DNAs were each used to transiently transfect HEK293 using POLYPLUS Jet-prime transfection reagent. Cells were analyzed using electrophysiological techniques 24-40 hours after transfection.
(§2) Stock solutions of inhibitor was prepared in dimethyl sulfoxide (DMSO) up to 100 mM. Dilutions to working concentrations were made using external buffer. […] For rASCT2, hASCT2 and hASCT1, external buffer contained 140 mM NaCl, 2 mM MgCl2, 2 mM CaCl2), and 10 mM HEPES, pH 7.40 while internal pipette solution comprised of 130 mM NaSCN, 2 mM MgCl2, 10 mM EGTA, 10 mM HEPES and 10 mM alanine, pH 7.40. For specificity experiments with EAAT1, EAAT2, EAAC1 and EAAT5, internal solution contained 10 mM glutamate instead of alanine. Compounds were applied to HEK293 cells expressing DNA of interest suspended from a current recording electrode in whole cell configuration through a rapid solution exchange device. Cells are immersed in external buffer bath used to dissolve the inhibitors. The open pipette resistance was between 3 and 6 MΩ. Series resistance was not compensated in these experiments due to relatively small currents. Currents traces were recorded using an Adams and List EPC7 amplifier and digitized using a Molecular Devices Digidata A/D converter.
(§3) Linear and nonlinear curve fitting of the experimental data were analyzed using MicroCal Origin software. Nonlinear dose-response relationships were fitted with a Michaelis-Menten-like equation to obtain apparent Ki values in the absence of substrate (see TABLE 2 for Ki values). The figures show representative current traces and dose-response curves for hACST2 and rASCT2, used to obtain Ki values in TABLE 2 for compound SN 40. At least four experiments were performed with at least three different cells. Error bars in all graphs, e.g., in FIG. 1B and FIG. 1C and tables (Ki values) represent mean±SD.

hASCT1 = target: T2, hASCT1 (Homo sapiens, UniProt P43007); test: Electrophysiology (whole-cell current recording) of transfected HEK293 cells, hASCT1
T2 construct: expressed in transfected cells; host or cells: HEK293 (ATCC CRL-11268), transient transfection
T2 sequence (P43007 1-532): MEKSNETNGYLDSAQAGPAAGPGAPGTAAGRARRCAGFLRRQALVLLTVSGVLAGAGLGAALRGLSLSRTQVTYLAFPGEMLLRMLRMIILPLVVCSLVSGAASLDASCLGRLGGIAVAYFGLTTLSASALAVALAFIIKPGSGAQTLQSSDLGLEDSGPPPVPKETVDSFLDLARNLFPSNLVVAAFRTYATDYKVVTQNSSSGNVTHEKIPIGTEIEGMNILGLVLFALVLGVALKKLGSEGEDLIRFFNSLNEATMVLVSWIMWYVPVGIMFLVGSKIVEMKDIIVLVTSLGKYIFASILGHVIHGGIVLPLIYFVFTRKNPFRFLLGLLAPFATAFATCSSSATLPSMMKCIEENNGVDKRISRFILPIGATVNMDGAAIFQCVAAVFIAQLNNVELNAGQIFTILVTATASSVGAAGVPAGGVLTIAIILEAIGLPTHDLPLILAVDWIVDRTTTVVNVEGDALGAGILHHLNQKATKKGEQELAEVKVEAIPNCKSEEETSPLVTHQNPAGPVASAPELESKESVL
Procedure: as §1, §2, §3

hASCT2 [1] = target: T3, hASCT2 (Homo sapiens, UniProt Q15758); test: Electrophysiology (whole-cell current recording) of transfected HEK293 cells, hASCT2
T3 construct: expressed in transfected cells; host or cells: HEK293 (ATCC CRL-11268), transient transfection
T3 sequence (Q15758 1-541): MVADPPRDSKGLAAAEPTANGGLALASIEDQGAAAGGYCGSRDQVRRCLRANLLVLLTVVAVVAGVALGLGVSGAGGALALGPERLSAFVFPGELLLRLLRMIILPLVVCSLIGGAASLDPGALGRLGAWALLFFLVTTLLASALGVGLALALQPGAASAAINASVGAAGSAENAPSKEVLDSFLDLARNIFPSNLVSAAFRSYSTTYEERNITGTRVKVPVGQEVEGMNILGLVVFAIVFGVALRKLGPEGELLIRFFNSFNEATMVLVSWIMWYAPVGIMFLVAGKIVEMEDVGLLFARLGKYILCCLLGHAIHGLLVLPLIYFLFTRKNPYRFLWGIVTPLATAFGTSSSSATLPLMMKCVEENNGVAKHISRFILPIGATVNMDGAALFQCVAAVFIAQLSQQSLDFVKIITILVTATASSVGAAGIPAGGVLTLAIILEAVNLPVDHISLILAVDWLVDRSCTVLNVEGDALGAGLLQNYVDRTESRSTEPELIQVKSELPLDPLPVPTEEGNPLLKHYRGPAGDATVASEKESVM
Procedure: as §1, §2, §3

EAAT1 = target: T4, EAAT1 (Homo sapiens, UniProt P43003); test: Electrophysiology specificity experiment in transfected HEK293 cells, EAAT1; conditions: apparent Ki, HEK293, internal solution 10 mM glutamate, mean ± SD
T4 construct: expressed in transfected cells; host or cells: HEK293 (ATCC CRL-11268), transient transfection
Procedure: as §1, §2, §3

hASCT2 [2] = target: T3, hASCT2; test: Competition experiment with alanine, hASCT2; conditions: 1 mM ala, first entry of the cell
[3] = apparent Ki in the absence of substrate, HEK293, mean ± SD, read-out: Ki rASCT2
[4] = apparent Ki in the absence of substrate, HEK293, mean ± SD, read-out: Ki hASCT1
[5] = apparent Ki in the absence of substrate, HEK293, mean ± SD, read-out: Ki hASCT2
[6] = Table 3, dihydroxyproline derivatives, read-out: Ki All DNA: rASCT2
[7] = Table 3, dihydroxyproline derivatives, read-out: Ki All DNA: hASCT1
[8] = Table 3, dihydroxyproline derivatives, read-out: Ki All DNA: hASCT2

T4 sequence (P43003 whole entry, species assumed): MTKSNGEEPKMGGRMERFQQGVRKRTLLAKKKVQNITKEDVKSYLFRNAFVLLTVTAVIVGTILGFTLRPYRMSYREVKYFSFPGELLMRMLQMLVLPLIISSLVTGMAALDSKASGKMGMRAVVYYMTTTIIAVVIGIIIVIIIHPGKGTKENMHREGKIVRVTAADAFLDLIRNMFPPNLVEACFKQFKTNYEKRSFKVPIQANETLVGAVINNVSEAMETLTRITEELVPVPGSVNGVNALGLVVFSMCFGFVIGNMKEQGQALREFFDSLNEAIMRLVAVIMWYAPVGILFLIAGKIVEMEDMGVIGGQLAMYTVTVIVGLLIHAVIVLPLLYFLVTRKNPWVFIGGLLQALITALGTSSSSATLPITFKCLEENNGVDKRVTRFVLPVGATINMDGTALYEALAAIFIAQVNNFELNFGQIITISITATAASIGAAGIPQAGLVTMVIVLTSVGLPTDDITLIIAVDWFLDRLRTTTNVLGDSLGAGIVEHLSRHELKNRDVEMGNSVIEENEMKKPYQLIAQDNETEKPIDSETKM

Ki (rASCT2; [3]) | Ki (hASCT1; [4]) | Ki (hASCT2 [1]; [5]) | Structure (SMILES) | further results
151000 ± 13300 nM | 141 ± 17.6 µM | 227000 ± 34200 nM | O=C(Nc1cccc(C(=O)N[C@@H]2CN[C@H](C(=O)O)C2)c1)c1ccccc1 [SN 47] | –
380 ± 170 nM | – | – | N[C@@H](COCc1ccc(-c2ccccc2)cc1)C(=O)O [SN 38] | –
– | 9.97 ± 0.5 µM | – | O=C(Nc1cccc(C(=O)O[C@@H]2CN[C@H](C(=O)O)C2)c1)c1ccc(C(F)(F)F)cc1 [SN 17] | Ki (rASCT2; apparent Ki in the absence of substrate, HEK293, nM, read-out: Ki rASCT2): < 100 nM; Ki (hASCT2 [1]; apparent Ki in the absence of substrate, HEK293, nM, read-out: Ki hASCT2): < 100 nM
8170 ± 1100 nM | > 100 µM | – | O=C(O[C@@H]1CN[C@H](C(=O)O)C1)c1ccc(OCc2ccccc2)cc1 [SN 21] | –
5170 ± 1200 nM | – | – | N[C@@H](COC(=O)c1ccc(C(O)c2ccccc2)cc1)C(=O)O (stereo partly drawn) [SN 27] | –
27200 ± 1900 nM | 20 ± 2.3 µM | 33600 ± 2500 nM | O=C(Nc1ccc(CN[C@@H]2CN[C@H](C(=O)O)C2)cc1)c1ccccc1 [SN 43] | –
6020 ± 1800 nM | – | 6380 ± 1200 nM | N[C@H](C(=O)O)[C@H](CO)OC(=O)c1ccc(-c2ccccc2)cc1 [SN 36] | –
18800 ± 5000 nM | 43 ± 13.4 µM | 5650 ± 1300 nM | O=C(O[C@@H]1CN[C@H](C(=O)O)C1)c1ccc(C(O)c2ccccc2)cc1 (stereo partly drawn) [SN 13] | Ki (EAAT1): 39.5 ± 19 µM
10000 ± 5100 nM | – | – | O=C(O[C@@H]1CN[C@H](C(=O)O)C1)c1c2ccccc2cc2ccccc12 [SN 22] | –
– | – | 1150 ± 900 nM | O=C(O)[C@@H]1C[C@H](NCc2ccc(-c3ccc(C(F)(F)F)cc3)cc2)CN1 [SN 41] | –
– | – | – | O=C(OC[C@@]1(O)CN[C@H](C(=O)O)C1)c1ccc(-c2ccccc2)cc1 [SN57] | Ki (rASCT2; [6]): 3870 nM; Competition Expt % block (given as a decimal): hASCT2 (hASCT2 [2]): full; Ki (hASCT2 [2]; read-out: Competition Expt (h/rASCT2 Ki): hASCT2 Ki): 40 µM; Ki (hASCT1; [7]): 6.61 µM; Ki (hASCT2 [1]; [8]): 4550 nM
– | – | – | O=C(OC[C@@]1(O)CN[C@H](C(=O)O)C1)c1ccc(C(=O)c2ccccc2)cc1 [SN61] | Ki (rASCT2; [6]): 88600 nM; Ki (hASCT1; [7]): 18.6 µM; Ki (hASCT2 [1]; [8]): 108000 nM
19700 ± 3100 nM | – | – | N[C@@H](COC(=O)c1ccc(-c2cccc(F)c2)cc1F)C(=O)O [SN 24] | –
– | – | – | O=C(O[C@]1(CO)CN[C@H](C(=O)O)C1)c1ccc(Oc2ccccc2)cc1 [SN76] | Ki (rASCT2; [6]): 20000 nM; Ki (hASCT1; [7]): 12.2 µM; Ki (hASCT2 [1]; [8]): 31900 nM
– | – | – | O=C(O[C@]1(CO)CN[C@H](C(=O)O)C1)c1ccc(-c2ccc(C(F)(F)F)cc2)cc1 [SN75] | Ki (rASCT2; [6]): 3310 nM; Ki (hASCT1; [7]): 1.17 µM; Ki (hASCT2 [1]; [8]): 8070 nM
3680 ± 700 nM | 5.71 ± 0.9 µM | 4170 ± 500 nM | O=C(O[C@@H]1CN[C@H](C(=O)O)C1)c1ccc(Oc2ccccc2)cc1 [SN 20] | –
